IC50 data for 26 molecules are collected here from US9556179B2 (BRISTOL-MYERS SQUIBB COMPANY, priority 2012, dated 2017).

One assay addresses CK1ε (Homo sapiens (Human), UniProt P49674). The assay can be described thus: CK1ε kinase assay (Caliper LABCHIP electrophoretic separation of fluoresceinated peptide substrate and product). In kind it is biochemical. As to conditions: 200 pM enzyme, 50 μM ATP, 22 hours at room temperature. As for the experimental part: (§1) CK1ε and CK1δ Kinase Assays
(§2) The kinase assay was performed in V-bottom 384-well plates. […] The reaction was incubated at room temperature for 22 hours and terminated by adding 45 μl of 35 mM EDTA to each sample. The reaction mixture was analyzed on the Caliper LABCHIP®3000 (Caliper, Hopkinton, Mass.) by electrophoretic separation of the unphosphorylated substrate and phosphorylated product. […] Compounds were dissolved at 10 mM in dimethylsulfoxide (DMSO) and evaluated at eleven concentrations. IC50 values were derived by non-linear regression analysis.

A further assay has as its target CK1δ (Homo sapiens (Human), UniProt P48730). The assay can be described thus: CK1δ kinase assay (Caliper LABCHIP electrophoretic separation of fluoresceinated peptide substrate and product). In kind it is biochemical. The conditions noted are these: 200 pM enzyme, 50 μM ATP, 22 hours at room temperature. As for the experimental part:
as §1, §2

Chain of CK1ε (P49674 whole entry): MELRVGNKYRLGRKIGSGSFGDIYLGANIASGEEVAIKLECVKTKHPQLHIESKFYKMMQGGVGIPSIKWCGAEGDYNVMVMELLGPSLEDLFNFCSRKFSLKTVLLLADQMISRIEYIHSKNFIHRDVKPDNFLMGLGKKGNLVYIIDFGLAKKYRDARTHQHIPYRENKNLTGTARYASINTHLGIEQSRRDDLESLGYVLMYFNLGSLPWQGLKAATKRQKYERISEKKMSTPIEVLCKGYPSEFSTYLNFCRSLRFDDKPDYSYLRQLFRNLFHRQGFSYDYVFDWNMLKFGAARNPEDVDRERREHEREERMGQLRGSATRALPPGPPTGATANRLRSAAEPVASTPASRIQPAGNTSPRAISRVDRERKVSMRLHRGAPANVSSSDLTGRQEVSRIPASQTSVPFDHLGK
Chain of CK1δ (P48730 whole entry): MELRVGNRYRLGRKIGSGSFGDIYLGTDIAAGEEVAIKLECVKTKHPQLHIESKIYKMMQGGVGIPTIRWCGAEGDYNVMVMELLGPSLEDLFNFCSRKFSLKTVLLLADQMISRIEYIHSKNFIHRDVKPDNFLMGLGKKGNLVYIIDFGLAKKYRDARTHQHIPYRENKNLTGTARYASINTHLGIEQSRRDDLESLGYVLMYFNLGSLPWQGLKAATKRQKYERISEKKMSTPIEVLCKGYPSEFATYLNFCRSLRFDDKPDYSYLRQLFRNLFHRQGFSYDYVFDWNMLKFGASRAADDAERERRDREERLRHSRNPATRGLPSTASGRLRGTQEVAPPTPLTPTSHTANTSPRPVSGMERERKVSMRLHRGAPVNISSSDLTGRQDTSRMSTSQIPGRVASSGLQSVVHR

What is called IC50 is the concentration at which inhibition is half-maximal. A lower IC50 goes with greater potency in that assay. Consider `O=C(Nc1cn2nc(-c3c(-c4ccc(F)cc4)nc4n3CCCC4)ccc2n1)c1ccnc(F)c1` [Compound 441, 2-Fluoro-N-(6-(2-(4-fluorophenyl)-5,6,7,8-tetrahydroimidazo[1,2-a]pyridin-3-yl)imidazo[1,2-b]pyridazin-2-yl)isonicotinamide], for which the results for the IC50 at CK1ε and at CK1δ were 5.4 nM and 0.8 nM, respectively.

Take `CN1CCC(n2cnc(-c3ccc(F)cc3)c2-c2ccc3nc(NC(=O)c4ccnc5ccccc45)cn3n2)CC1` [Compound 110, N-(6-(4-(4-fluorophenyl)-1-(1-methylpiperidin-4-yl)-1H-imidazol-5-yl)imidazo[1,2-b]pyridazin-2-yl)quinoline-4-carboxamide]: the half-maximal inhibitory concentration (IC50) on CK1ε is 3.27 nM; at CK1δ, 0.65 nM.

With `O=C(Nc1cn2nc(-c3c(-c4ccc(F)cc4)nc4n3CCN(C(=O)NCCC(F)(F)F)C4)ccc2n1)c1ccnc(F)c1` [Compound 486, 3-(2-(2-Fluoroisonicotinamido)imidazo[1,2-b]pyridazin-6-yl)-2-(4-fluorophenyl)-N-(3,3,3-trifluoropropyl)-5,6-dihydroimidazo[1,2-a]pyrazine-7(8H)-carboxamide], the half-inhibitory concentration (IC50) against CK1ε worked out at 6.4 nM; at CK1δ, 0.7 nM.

Consider `Cn1cnc(Cn2cnc(-c3ccc(F)cc3)c2-c2ccc3nc(NC(=O)c4ccnc(F)c4)cn3n2)c1` [Compound 253, 2-fluoro-N-(6-(4-(4-fluorophenyl)-1-((1-methyl-1H-imidazol-4-yl)methyl)-1H-imidazol-5-yl)imidazo[1,2-b]pyridazin-2-yl) isonicotinamide], for which the IC50 is 18 nM against CK1ε and 1.15 nM on CK1δ.

On to `O=C(Nc1cn2nc(-c3c(-c4ccc(F)cc4)ncn3CCN3CCCCC3=O)ccc2n1)c1ccnc(F)c1` [Compound 261, 2-fluoro-N-(6-(4-(4-fluorophenyl)-1-(2-(2-oxopiperidin-1-yl)ethyl)-1H-imidazol-5-yl)imidazo[1,2-b]pyridazin-2-yl)isonicotinamide], for which the concentration for half-maximal inhibition (IC50) on CK1ε turned out to be 14.8 nM; on CK1δ, 0.403 nM.

For the molecule `Cc1oncc1C(=O)Nc1cn2nc(-c3c(-c4ccc(F)cc4)nc(C)n3C)ccc2n1` [Compound 365, N-(6-(4-(4-fluorophenyl)-1,2-dimethyl-1H-imidazol-5-yl)imidazo[1,2-b]pyridazin-2-yl)-5-methyl-4-isoxazole-carboxamide], the IC50 came to 1110 nM on CK1ε and 103 nM on CK1δ.

`Cc1nc(-c2cccnc2)sc1C(=O)Nc1cn2nc(-c3c(-c4ccc(F)cc4)ncn3C3CN(CCO)C3)ccc2n1` [Compound 155, N-(6-(4-(4-fluorophenyl)-1-(1-(2-hydroxyethyl)azetidin-3-yl)-1H-imidazol-5-yl)imidazo[1,2-b]pyridazin-2-yl)-4-methyl-2-(pyridin-3-yl)thiazole-5-carboxamide]: the 50% inhibitory concentration (IC50) against CK1ε is 7.48 nM; against CK1δ it was 0.451 nM.

On to `O=C(Nc1cn2nc(-c3c(-c4ccc(F)cc4)ncn3C3CCN(CC4CC4)CC3)ccc2n1)c1ccnc(F)c1` [Compound 28, N-(6-(1-(1-(cyclopropylmethyl)piperidin-4-yl)-4-(4-fluorophenyl)-1H-imidazol-5-yl)imidazo[1,2-6]pyridazin-2-yl)-2-fluoroisonicotinamide], for which the figures for the IC50 against CK1ε and against CK1δ were 1.27 nM and 0.207 nM, respectively.

Turning to `O=C(Nc1cn2nc(-c3c(-c4ccc(F)cc4)ncn3C3CCNCC3)ccc2n1)c1ccnc(F)c1` [Compound 9, 2-fluoro-N-(6-(4-(4-fluorophenyl)-1-(piperidin-4-yl)-1H-imidazol-5-yl)imidazo[1,2-b]pyridazin-2-yl)isonicotinamide], the 50% inhibitory concentration (IC50) on CK1ε was determined as 0.681 nM; against CK1δ it was 0.92 nM.

As to `CN1CCN(c2ccc3nc(-c4ccc(F)cc4)c(-c4ccc5nc(NC(=O)c6ccncc6)cn5n4)n3n2)CC1` [Compound 223, N-(2-(4-fluorophenyl)-6-(4-methylpiperazin-1-yl)-[3,6′-biimidazo[1,2-b]pyridazin]-2′-yl)isonicotinamide], the IC50 on CK1ε was found to be 10.1 nM; at CK1δ, 6.85 nM.

Turning to `CC(C)(C)C(=O)Nc1cn2nc(-c3c(-c4ccc(F)cc4)ncn3Cc3ccoc3)ccc2n1` [Compound 279, N-(6-(4-(4-fluorophenyl)-1-(furan-3-ylmethyl)-1H-imidazol-5-yl)imidazo[1,2-b]pyridazin-2-yl)pivalamide], the IC50 on CK1ε came to 0.887 nM; against CK1δ, 0.169 nM.

As for `O=C(Nc1cn2nc(-c3c(-c4ccc(F)cc4)ncn3C3CCN(C(=O)c4ccns4)CC3)ccc2n1)c1ccnc(F)c1` [Compound 73, 2-fluoro-N-(6-(4-(4-fluorophenyl)-1-(1-(isothiazole-5-carbonyl)piperidin-4-yl)-1H-imidazol-5-yl)imidazo[1,2-b]pyridazin-2-yl)isonicotinamide], the IC50 against CK1ε came to 0.608 nM; on CK1δ it was 0.354 nM.

Regarding `Cc1nc(-c2ccc(F)c(F)c2)c(-c2ccc3nc(NC(=O)c4ccnc(F)c4)cn3n2)n1CC(F)F` [Compound 291, N-(6-(1-(2,2-difluoroethyl)-4-(3,4-difluorophenyl)-2-methyl-1H-imidazol-5-yl)imidazo[1,2-b]pyridazin-2-yl)-2-fluoroiso-nicotinamide], the IC50 at CK1ε worked out at 2.64 nM; against CK1δ, 0.388 nM.

With `O=C(Nc1cn2nc(-c3c(-c4ccc(F)cc4)ncn3CCN3CCC(F)(F)CC3)ccc2n1)c1ccnc(F)c1` [Compound 251, N-(6-(1-(2-(4,4-difluoro-1-piperi-dinyl)ethyl)-4-(4-fluorophenyl)-1H-imidazol-5-yl)imidazo[1,2-b]pyridazin-2-yl)-2-fluoroiso-nicotinamide], the concentration for half-maximal inhibition (IC50) at CK1ε turned out to be 5.38 nM; against CK1δ it was 0.385 nM.

Turning to `Cc1nc(-c2ccc(F)cc2)c(-c2ccc3nc(NC(=O)c4ncc[nH]4)cn3n2)n1C` [Compound 373, N-(6-(4-(4-fluorophenyl)-1,2-dimethyl-1H-imidazol-5-yl)imidazo[1,2-b]pyridazin-2-yl)-1H-imidazole-2-carboxamide], the 50% inhibitory concentration (IC50) at CK1ε was found to be 176 nM; against CK1δ, 18.5 nM.

`NC(=O)CN1CCC(n2cnc(-c3ccc(F)cc3)c2-c2ccc3nc(NC(=O)c4ccnc5ccccc45)cn3n2)CC1` [Compound 112, N-(6-(1-(1-(2-amino-2-oxoethyl)piperidin-4-yl)-4-(4-fluorophenyl)-1H-imidazol-5-yl)imidazo[1,2-b]pyridazin-2-yl)quinoline-4-carboxamide]: the IC50 on CK1ε was found to be 0.886 nM; at CK1δ, 0.494 nM.

For the molecule `Cn1ccc(-c2cccc(C(=O)Nc3cn4nc(-c5c(-c6ccc(F)cc6)nc6ccccn56)ccc4n3)c2)n1` [Compound 171, N-(6-(2-(4-fluorophenyl)imidazo[1,2-a]pyridin-3-yl)imidazo[1,2-b]pyridazin-2-yl)-3-(1-methyl-1H-pyrazol-3-yl)benzamide], the IC50 against CK1ε amounted to 7.68 nM; on CK1δ it was 1.98 nM.

In the case of `O=C(Nc1cn2nc(-c3c(-c4ccc(F)cc4)nc4ccccn34)ccc2n1)c1ccnc(F)c1` [Compound 196, 2-fluoro-N-(6-(2-(4-fluorophenyl)imidazo[1,2-a]pyridin-3-yl)imidazo[1,2-b]pyridazin-2-yl)isonicotinamide], the concentration for half-maximal inhibition (IC50) was found to be 5.91 nM against CK1ε and 3.65 nM against CK1δ.

With `CCn1cnc(-c2ccc(F)cc2)c1-c1ccc2nc(NC(=O)c3ccnc(F)c3)cn2n1` [Compound 232, N-(6-(1-ethyl-4-(4-fluorophenyl)-1H-imidazol-5-yl)imidazo[1,2-b]pyridazin-2-yl)-2-fluoroiso-nicotinamide], the IC50 against CK1ε is 1.54 nM; against CK1δ, 0.322 nM.

Take `O=C(Nc1cn2nc(-c3c(-c4ccc(F)cc4)ncn3C3CCN(C[C@H](O)C(F)(F)F)CC3)ccc2n1)c1ccnc(F)c1` [Compound 38, (S)-2-fluoro-N-(6-(4-(4-fluorophenyl)-1-(1-(3,3,3-trifluoro-2-hydroxypropyl)piperidin-4-yl)-1H-imidazol-5-yl)imidazo[1,2-b]pyridazin-2-yl)isonicotinamide]: the concentration for half-maximal inhibition (IC50) against CK1ε worked out at 0.305 nM; at CK1δ, 0.292 nM.

As to `Cn1ccc(C(=O)Nc2cn3nc(-c4c(-c5ccc(F)cc5)nc5ccccn45)ccc3n2)n1` [Compound 181, N-(6-(2-(4-fluorophenyl)imidazo[1,2-a]pyridin-3-yl)imidazo[1,2-b]pyridazin-2-yl)-1-methyl-1H-pyrazole-3-carboxamide], the IC50 at CK1ε came to 10.8 nM; against CK1δ it was 4.01 nM.

For the molecule `CN1CCC(CN2CCC(n3cnc(-c4ccc(F)cc4)c3-c3ccc4nc(NC(=O)c5ccnc(F)c5)cn4n3)CC2)CC1` [Compound 25, 2-fluoro-N-(6-(4-(4-fluorophenyl)-1-(1-((1-methylpiperidin-4-yl)methyl)piperidin-4-yl)-1H-imidazol-5-yl)imidazo[1,2-6]pyridazin-2-yl)isonicotinamide], the IC50 against CK1δ is 0.532 nM.

On CK1δ, `O=C(Nc1cn2nc(-c3c(-c4ccc(F)cc4)ncn3C3CCNCC3)ccc2n1)c1ccncc1` [Compound 1, N-(6-(4-(4-fluorophenyl)-1-(piperidin-4-yl)-1H-imidazol-5-yl)imidazo[1,2-b]pyridazin-2-yl)isonicotinamide] yielded a 50% inhibitory concentration (IC50) of 0.064 nM.

As to `O=C(Nc1cn2nc(-c3c(-c4ccc(Cl)cc4)ncn3CC(F)F)ccc2n1)c1ccnc(F)c1` [Compound 244, N-(6-(4-(4-chlorophenyl)-1-(2,2-difluoroethyl)-1H-imidazol-5-yl)imidazo[1,2-b]pyridazin-2-yl)-2-fluoroisonicotinamide], the midpoint of inhibition against CK1δ, the IC50, lay at 0.204 nM.

On to `O=C(Nc1cn2nc(-c3c(-c4ccc(F)cc4)ncn3C3CCN(CC4CCOCC4)CC3)ccc2n1)c1ccnc(F)c1` [Compound 19], for which half-maximal inhibition against CK1δ (IC50) was put at 0.611 nM.

`O=C(Nc1cn2nc(-c3c(-c4ccc(F)cc4)ncn3C3CCN(C(=O)C4CC(F)(F)C4)CC3)ccc2n1)c1ccnc(F)c1` [Compound 67, N-(6-(1-(1-(3,3-difluorocyclobutanecarbonyl)piperidin-4-yl)-4-(4-fluorophenyl)-1H-imidazol-5-yl)imidazo[1,2-b]pyridazin-2-yl)-2-fluoroisonicotinamide]: the half-maximal inhibitory concentration (IC50) against CK1δ is 0.116 nM.
